Experimental data: US4138403A, “Azabicycloheptanes” (Beecham Group Limited, priority 1975, dated 1979)

Tests used:
Type in all cases: biochemical
[1] = system: β-lactamase Citrobac.; experiment: β-lactamase inhibition, Citrobac. enzyme
Method: (§1) The β-lactamase inhibiting activity of certain compounds of the formula (e36) was determined by the method described in Belgian Patent No. 827,926 and the results are shown in Table 1.

[2] = molecular target: β-lactamase Ps. aerug. (Pseudomonas aeruginosa, UniProt P24735); experiment: β-lactamase inhibition, Ps. aerug. enzyme; settings: read-out: % Inhibition of - lactamases at 40 μg/ml, Ps. aerug.
β-lactamase Ps. aerug., sequence (P24735 27-397): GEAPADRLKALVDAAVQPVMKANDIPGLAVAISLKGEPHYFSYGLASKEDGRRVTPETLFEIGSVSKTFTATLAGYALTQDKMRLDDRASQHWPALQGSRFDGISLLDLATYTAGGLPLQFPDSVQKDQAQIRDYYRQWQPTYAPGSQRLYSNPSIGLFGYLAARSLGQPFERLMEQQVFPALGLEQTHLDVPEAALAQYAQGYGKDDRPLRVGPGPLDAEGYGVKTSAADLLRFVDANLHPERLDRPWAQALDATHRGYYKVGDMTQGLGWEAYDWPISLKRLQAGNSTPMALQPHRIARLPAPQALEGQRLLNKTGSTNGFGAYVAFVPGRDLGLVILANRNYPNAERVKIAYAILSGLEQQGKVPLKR
Method: as §1

[3] = molecular target: β-lactamase E.Coli JT4 (Escherichia coli, UniProt P62593); experiment: β-lactamase inhibition, E.Coli JT4 enzyme; settings: read-out: % Inhibition of - lactamases at 40 μg/ml, E.Coli JT4
β-lactamase E.Coli JT4, sequence (P62593 24-286 limits assumed): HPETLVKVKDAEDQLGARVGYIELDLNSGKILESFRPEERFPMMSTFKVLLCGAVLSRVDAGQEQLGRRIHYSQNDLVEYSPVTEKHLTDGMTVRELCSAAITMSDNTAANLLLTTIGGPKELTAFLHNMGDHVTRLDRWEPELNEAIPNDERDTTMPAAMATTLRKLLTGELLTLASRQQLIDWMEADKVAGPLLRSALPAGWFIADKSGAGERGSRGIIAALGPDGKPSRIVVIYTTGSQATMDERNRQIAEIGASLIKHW
Method: as §1

[4] = system: β-lactamase Kleb. ε 70; experiment: β-lactamase inhibition, Kleb. ε 70 enzyme
Method: as §1

[5] = molecular target: β-lactamase Ps. dalgl. (Pseudomonas aeruginosa, UniProt P16897); experiment: β-lactamase inhibition, Ps. dalgl. enzyme; settings: read-out: % Inhibition of - lactamases at 40 μg/ml, Ps. dalgl.
β-lactamase Ps. dalgl., sequence (P16897 18-288): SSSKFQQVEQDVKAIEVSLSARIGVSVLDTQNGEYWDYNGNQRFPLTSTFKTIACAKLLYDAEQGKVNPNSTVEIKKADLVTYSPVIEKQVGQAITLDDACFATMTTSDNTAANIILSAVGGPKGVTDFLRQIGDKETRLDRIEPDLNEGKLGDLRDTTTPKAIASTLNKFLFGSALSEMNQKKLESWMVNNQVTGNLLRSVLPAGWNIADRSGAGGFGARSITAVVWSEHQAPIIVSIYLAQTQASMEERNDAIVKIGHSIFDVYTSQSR
Method: as §1

[6] = molecular target: β-lactamase Staph. Russell (Staphylococcus aureus, UniProt P00807); experiment: β-lactamase inhibition, Staph. Russell enzyme; settings: read-out: % Inhibition of - lactamases at 40 μg/ml, Staph. Russell
β-lactamase Staph. Russell, sequence (P00807 25-281): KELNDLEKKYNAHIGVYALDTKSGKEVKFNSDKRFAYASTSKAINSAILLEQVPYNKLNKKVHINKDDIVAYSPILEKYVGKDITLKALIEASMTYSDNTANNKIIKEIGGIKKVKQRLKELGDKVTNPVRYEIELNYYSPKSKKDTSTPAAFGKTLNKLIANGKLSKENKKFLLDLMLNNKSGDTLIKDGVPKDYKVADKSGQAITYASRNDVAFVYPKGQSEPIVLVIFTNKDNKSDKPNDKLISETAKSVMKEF
Method: as §1

[7] = system: β-lactamase Proteus C889; experiment: β-lactamase inhibition, Proteus C889 enzyme
Method: as §1

Compound	% Inhibition of - lactamases at 40 μg/ml, Citrobac. [1] [%]	inhibition at 40 µg/mL [2] [%]	inhibition at 40 µg/mL [3] [%]	% Inhibition of - lactamases at 40 μg/ml, Kleb. ε 70 [4] [%]	inhibition at 40 µg/mL [5] [%]	inhibition at 40 µg/mL [6] [%]	% Inhibition of - lactamases at 40 μg/ml, Proteus C889 [7] [%]	I50 values (in parentheses), Citrobac. ([1]; value printed in parentheses) [µg/mL]
COC(=O)[C@H]1[C@H](CCOS(=O)(=O)c2ccc(C)cc2)O[C@@H]2CC(=O)N21 (relative stereo)	5	11	33	0	11	4	–	–
COC(=O)[C@H]1[C@H](CCO)O[C@@H]2CC(=O)N21 (relative stereo) [CH2 CH2 OH, Me, (2RS,3SR,5RS)]	2	10	15	14	0	10	29	–
O=C(O)[C@H]1CO[C@@H]2CC(=O)N12 (relative stereo) [H, Na, (2RS,5RS)]	0	14	28	78	0	33	–	–
COC(=O)[C@H]1[C@H](CBr)O[C@@H]2CC(=O)N21 (relative stereo) [CH2 Br, CO2 CH3, (2RS,3RS,5RS)]	–	8	42	4	17	12	42	10.3
O=C(OCc1ccccc1)[C@@H]1O[C@@H]2CC(=O)N2[C@H]1C(=O)OCc1ccccc1 [CO2 CH2 Ph, CO2 CH2 Ph, (2R,3R,5R), Dibenzyl (2R, 3R, 5R)-7-oxo-4-oxa-1-azabicyclo-[3.2.0]heptan-2,3-Dicarboxylate]	2	9	65	56	26	0	23	–
